US11912682B2, “Isoindolinone compounds” (Monte Rosa Therapeutics, Inc., priority 2021, dated 2024)
pIC50: −log10 of the molar value. Read-outs that look alike come from different tables or passages of the source.

Legend:
[1] = molecular target: Full length wild-type cereblon CRBN (Homo sapiens (Human), UniProt Q96SW2); assay: fluorescence polarization (FP) assay, cereblon binding
Excerpt: Compound activity was monitored in a fluorescence polarization (FP) homogeneous assay using 1-[5-({2-[2-(2-{[2-(2,6-dioxopiperidin-3-yl)-1,3-dioxo-2,3-dihydro-1H-isoindol-4-yl]oxy}acetamido)ethoxy]ethyl}carbamoyl)pentyl]-3,3-dimethyl-2-[(1E,3E)-5-[(2E)-1,3,3-trimethyl-5-sulfo-2,3-dihydro-1H-indol-2-ylidene]penta-1,3-dien-1-yl]-3H-indol-1-ium-5-sulfonate as a fluorescent probe. Unless otherwise stated, all reagents were purchased from Sigma Aldrich. […] Full length wild-type cereblon CRBN (80.0 nM, 10 μL) was incubated in assay buffer containing 20 mM HEPES (pH 8.0), […], 0.5 mM TCEP and 0.05% Tween 20 in the presence or absence of compound (300 nL). Inhibitors were stored as 10 mM DMSO stocks in an inert environment (low humidity, dark, low oxygen, room temperature) using the Storage Pod System. […] Following incubation at room temperature for 30 min, the assay was initiated by dispensing the probe to a final concentration of 5 nM (2.5 nL of a 20 μM stock) using the Echo ESXX. […] The FP signal was subsequently normalized to the no-compound control (i.e., DMSO). Analysis and IC50 values were derived using Dotmatics (Dotmatics UK) software.

GSPT1 = GSPT1 (Homo sapiens (Human), UniProt P15170+Q96SW2); assay: immunofluorescence assay for GSPT1 degradation in CAL-51 cells (Example 4); format: cell-based
GSPT1, sequence (P15170 whole entry): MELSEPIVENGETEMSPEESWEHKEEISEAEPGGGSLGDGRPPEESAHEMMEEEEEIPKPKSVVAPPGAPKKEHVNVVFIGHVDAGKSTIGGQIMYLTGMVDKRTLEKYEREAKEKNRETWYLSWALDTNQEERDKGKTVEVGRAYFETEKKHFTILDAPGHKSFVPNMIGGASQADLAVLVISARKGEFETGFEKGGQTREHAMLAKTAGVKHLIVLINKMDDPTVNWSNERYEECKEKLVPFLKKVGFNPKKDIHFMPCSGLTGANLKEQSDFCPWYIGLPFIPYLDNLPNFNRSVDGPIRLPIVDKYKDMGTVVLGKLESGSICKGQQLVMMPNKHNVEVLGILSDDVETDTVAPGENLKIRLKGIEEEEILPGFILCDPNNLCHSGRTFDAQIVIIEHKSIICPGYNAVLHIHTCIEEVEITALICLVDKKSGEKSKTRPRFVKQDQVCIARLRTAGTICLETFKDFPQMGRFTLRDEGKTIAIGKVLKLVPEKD
GSPT1, sequence (Q96SW2 whole entry): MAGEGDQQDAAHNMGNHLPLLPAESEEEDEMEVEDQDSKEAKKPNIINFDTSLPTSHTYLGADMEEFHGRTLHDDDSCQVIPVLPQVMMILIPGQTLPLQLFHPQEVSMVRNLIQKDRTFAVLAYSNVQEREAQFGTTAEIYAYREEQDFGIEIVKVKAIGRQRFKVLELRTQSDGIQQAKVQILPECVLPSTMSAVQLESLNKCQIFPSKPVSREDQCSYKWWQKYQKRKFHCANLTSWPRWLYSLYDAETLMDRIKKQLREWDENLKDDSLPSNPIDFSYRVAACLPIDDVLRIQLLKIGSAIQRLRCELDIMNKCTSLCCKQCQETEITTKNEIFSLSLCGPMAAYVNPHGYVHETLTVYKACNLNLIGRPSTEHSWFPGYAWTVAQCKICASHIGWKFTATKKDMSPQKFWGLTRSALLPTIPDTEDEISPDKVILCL
GSPT1, sequence (Q16531 2-1140 partner): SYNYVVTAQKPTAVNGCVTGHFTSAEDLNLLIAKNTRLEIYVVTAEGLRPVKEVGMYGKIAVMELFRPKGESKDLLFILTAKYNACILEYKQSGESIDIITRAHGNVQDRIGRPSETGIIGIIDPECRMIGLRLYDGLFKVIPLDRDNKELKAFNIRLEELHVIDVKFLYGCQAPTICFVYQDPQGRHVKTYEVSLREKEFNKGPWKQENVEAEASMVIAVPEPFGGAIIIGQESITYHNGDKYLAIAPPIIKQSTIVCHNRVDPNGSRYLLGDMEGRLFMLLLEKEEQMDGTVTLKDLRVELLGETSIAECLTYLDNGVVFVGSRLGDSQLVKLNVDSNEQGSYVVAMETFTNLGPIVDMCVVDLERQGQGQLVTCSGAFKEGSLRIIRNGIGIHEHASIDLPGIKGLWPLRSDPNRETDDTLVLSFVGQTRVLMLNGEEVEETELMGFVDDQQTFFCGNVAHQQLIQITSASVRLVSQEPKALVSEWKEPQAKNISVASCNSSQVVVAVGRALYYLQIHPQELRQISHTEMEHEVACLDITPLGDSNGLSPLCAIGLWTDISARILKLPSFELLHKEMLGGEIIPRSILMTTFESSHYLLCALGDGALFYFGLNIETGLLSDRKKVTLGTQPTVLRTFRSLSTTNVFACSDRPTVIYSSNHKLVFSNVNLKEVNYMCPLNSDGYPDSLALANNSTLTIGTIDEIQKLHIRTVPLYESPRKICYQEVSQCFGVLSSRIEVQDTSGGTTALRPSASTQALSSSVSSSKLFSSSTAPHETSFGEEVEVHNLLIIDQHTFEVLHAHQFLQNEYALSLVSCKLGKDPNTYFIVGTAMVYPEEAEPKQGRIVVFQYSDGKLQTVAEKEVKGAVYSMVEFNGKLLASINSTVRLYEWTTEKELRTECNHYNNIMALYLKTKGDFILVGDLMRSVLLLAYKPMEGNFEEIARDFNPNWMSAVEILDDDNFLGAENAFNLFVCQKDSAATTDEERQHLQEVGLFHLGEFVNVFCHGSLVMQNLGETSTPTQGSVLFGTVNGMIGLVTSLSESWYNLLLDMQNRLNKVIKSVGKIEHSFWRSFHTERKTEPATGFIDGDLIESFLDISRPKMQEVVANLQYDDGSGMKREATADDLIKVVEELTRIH
Procedure: The representative compounds were tested in an immunofluorescence assay for their activity to bind to degrade GSPT1. CAL-51 cells were purchased from DSMZ (cat. Number ACC302), sub-cultured in 90% Dulbecco's MEM (4.5 g/L glucose, Gibco 11965) +10% heat inactivated FBS (BioConcept, 2-01F136I) and incubated at 37° C., 5% CO2. For the assay, imaging microtiterplate Cell Carrier 96 Ultra (Perkin Elmer 6055302) were pre-coated with Fibronectin (Sigma F085, 30 μl at 0.2 μg/ml) in PBS (100 μl, Gibco 14190) for 45 min at room temperature, rinsed with PBS and CAL-51 cells (30 K cells/well) were plated and let to adhere overnight. Cells were treated with compounds typically using a serial dilution ranging from 30 μM to 0.1 nM for 6 hours. Compounds were stored at 10 mM DMSO stocks. Vehicle (DMSO), positive (CC-885, 10 μM) and rescue controls (positive control plus 0.2 μM bortezomib) were also included atthis stage. Cells were subsequently rinsed with PBS and fixed in 10% Formalin solution (50 μl, Sigma HT5011)) for 20 mins at room temperature. Following three consecutive PBS washes (100 μl), cells were permeabilized in 0.1% Triton X-100 in PBS (Sigma 93443, 50 μl) for 15 mins at room temperature. Following three further PBS washes, 50 μl blocking buffer (1% BSA, Sigma A4503, in PBS) was added for 45 min for signal-to-noise reduction.
Primary antibody (human GSPT1, Sigma HPA052488) was diluted in blocking buffer (dil.1/300, 35 μl/well) and incubated with the cells overnight at 4° C. After three PBS washes, Alexa-fluor 488 coupled secondary antibodies (Invitrogen, A32731, dil.1/1000), Alexa-fluor 647-Phalloidin (Invitrogen, A22287, dil.1/200) and DAPI (Thermo, #62248, dil.1/1000) were diluted in blocking buffer and incubated with the samples for 2 hours at room temperature. After three final PBS washes, samples were conserved in 100 μl PBS in the dark, until measurement. Image acquisition was performed on the Operetta High-Content Imager (Perkin-Elmer). Fluorescence intensity of Alexa-Fluor 488 (GSPT1), Alexa-Fluor 647 (Actin) and DAPI (Nucleus) were measured. For the determination of GSPT1 DC50 values, a custom algorithm implemented in the PerkinElmer image analysis software Harmony-Acapella® was developed. After user-defined setting of adjustment parameters, the analysis was run identically without human intervention for all image fields. DAPI staining of the nuclei was used to determine the location of cells using standard nuclei detection modules. Segmentation artifacts were removed by threshold-based filters for area, roundness and intensity. The outline of the cells was determined analogously from the sum of the normalized, smoothed DAPI and Actin channel, starting from each nucleus. The Alexa-Fluor 488 (GSPT1) signal intensity in each cell was finally measured, in order to obtain a Mean intensity per cell. GSPT1 degradation (DC50) was calculated after normalization to controls and data import in CDD vault Database, using non-linear regression.

[2] = 6 hours, read-out: Activity for GSPT1 degradation, Code (DC50)
[3] = GSPT1 degradation, read-out: DC50 value

Full length wild-type cereblon CRBN, sequence (Q96SW2 whole entry): as the sequence (Q96SW2 whole entry) above

Structure (SMILES)	pIC50 ([1]; read-out: IC50 value)	DC50 (GSPT1; [2]) [µM]	pIC50 ([1]; read-out: rFP IC50)	DC50 (GSPT1; [3]) [µM]	pIC50 ([1]; IC50 value)	DC50 (GSPT1; read-out: Activity for GSPT1 degradation, Code (DC50), 6 hours) [µM]
O=C1CCC(N2Cc3ccc(COC(=O)Nc4cnc(N5CCCCC5)nc4)cc3C2=O)C(=O)N1 (centres unmarked) [Compound 64]	> 5.96	0.03 to 0.3	–	–	–	–
O=C1CCC(N2Cc3ccc(COC(=O)Nc4ccc(N5CCCCC5)nn4)cc3C2=O)C(=O)N1 (centres unmarked) [Compound 75]	–	0.03 to 0.3	> 6.30	–	–	–
O=C1CCC(N2Cc3ccc(COC(=O)Nc4ccc(N5CCC(F)(F)CC5)nc4)cc3C2=O)C(=O)N1 (centres unmarked) [Compound 78]	–	0.03 to 0.3	> 6.30	–	–	–
CN1CCN(c2ccc(NC(=O)OCc3ccc4c(c3)C(=O)N(C3CCC(=O)NC3=O)C4)cn2)CC1 (centres unmarked) [Compound 82]	–	> 0.3	> 6.30	–	–	–
O=C1CCC(N2Cc3ccc(COC(=O)Nc4ccc(-c5ccccc5F)nc4)cc3C2=O)C(=O)N1 (centres unmarked) [Compound 84]	–	< 0.03	> 6.30	≤ 0.03	–	–
Cc1ccccc1-c1ccc(NC(=O)OCc2ccc3c(c2)C(=O)N(C2CCC(=O)NC2=O)C3)cn1 (centres unmarked) [Compound 86]	> 5.96	< 0.03	–	≤ 0.03	–	–
COc1ccccc1-c1ccc(NC(=O)OCc2ccc3c(c2)C(=O)N(C2CCC(=O)NC2=O)C3)cn1 (centres unmarked) [Compound 87]	> 5.96	< 0.03	–	≤ 0.03	–	–
Cc1cc(NC(=O)OCc2ccc3c(c2)C(=O)N(C2CCC(=O)NC2=O)C3)cnc1-c1ccccc1 (centres unmarked) [Compound 88]	> 5.96	< 0.03	–	≤ 0.03	–	–
CN(C)C1CN(c2ccc(NC(=O)OCc3ccc4c(c3)C(=O)N(C3CCC(=O)NC3=O)C4)cn2)C1 (centres unmarked) [Compound 89]	> 5.96	> 0.3	–	–	–	–
Cc1ncc(NC(=O)OCc2ccc3c(c2)C(=O)N(C2CCC(=O)NC2=O)C3)cc1OC(F)(F)F (centres unmarked) [Compound 91]	> 5.96	< 0.03	–	≤ 0.03	–	–
O=C1CCC(N2Cc3ccc(COC(=O)Nc4ccc5c(c4)OCCC5)cc3C2=O)C(=O)N1 (centres unmarked) [Compound 92]	> 5.96	< 0.03	–	≤ 0.03	–	–
O=C1CCC(N2Cc3ccc(COC(=O)Nc4cnc(N5CCCCC5)cn4)cc3C2=O)C(=O)N1 (centres unmarked) [Compound 94]	–	0.03 to 0.3	> 6.30	–	–	–
O=C1CCC(N2Cc3ccc(COC(=O)NCc4ccccc4)cc3C2=O)C(=O)N1 (centres unmarked) [Compound 98]	> 5.96	> 0.3	–	–	–	–
O=C1CCC(N2Cc3ccc(COC(=O)Nc4cc(CN5CC6CC5CO6)cc(OC(F)F)c4)cc3C2=O)C(=O)N1 (centres unmarked) [Compound 100]	> 5.96	0.03 to 0.3	–	–	–	–
O=C1CCC(N2Cc3ccc(COC(=O)Nc4ccc(C5CCC5)nc4)cc3C2=O)C(=O)N1 (centres unmarked) [Compound 105]	> 5.96	0.03 to 0.3	–	–	–	–
O=C1CCC(N2Cc3ccc(COC(=O)Nc4cc(OCCN5CCOCC5)cc(OC(F)(F)F)c4)cc3C2=O)C(=O)N1 (centres unmarked) [Compound 106]	> 5.96	0.03 to 0.3	–	–	–	–
O=C1CCC(N2Cc3ccc(COC(=O)Nc4ccc(N5CCC5)nc4)cc3C2=O)C(=O)N1 (centres unmarked) [Compound 107]	–	> 0.3	> 6.30	–	–	–
Cc1cc(NC(=O)OCc2ccc3c(c2)C(=O)N(C2CCC(=O)NC2=O)C3)cc(C)c1C#N (centres unmarked) [Compound 108]	–	0.03 to 0.3	> 6.30	–	–	–
Cc1ccc(NC(=O)OCc2ccc3c(c2)C(=O)N(C2CCC(=O)NC2=O)C3)cc1C#N (centres unmarked) [Compound 110, (2-(2,6-dioxopiperidin-3-yl)-3-oxoisoindolin-5-yl)methyl(3-cyano-4-methylphenyl)carbamate]	> 6.30	–	> 6.30	≤ 0.03	> 5.96	< 0.03

The next lines start with results.

pIC50 ([1]; read-out: IC50 value)	DC50 (GSPT1; [2]) [µM]	pIC50 ([1]; read-out: rFP IC50)	DC50 (GSPT1; [3]) [µM]	Structure (SMILES)	pIC50 ([1]; IC50 value)	DC50 (GSPT1; read-out: Activity for GSPT1 degradation, Code (DC50), 6 hours) [µM]
–	> 0.3	> 6.30	–	O=C1CCC(N2Cc3ccc(COC(=O)Nc4ccc(N5CC6CCC(C5)O6)nc4)cc3C2=O)C(=O)N1 (centres unmarked) [Compound 65]	–	–
–	0.03 to 0.3	> 6.30	–	O=C1CCC(N2Cc3ccc(COC(=O)Nc4ccc5c(c4)CCO5)cc3C2=O)C(=O)N1 (centres unmarked) [Compound 66]	–	–
> 5.96	0.03 to 0.3	–	–	O=C1CCC(N2Cc3ccc(COC(=O)Nc4ccc5c(c4)CCCO5)cc3C2=O)C(=O)N1 (centres unmarked) [Compound 67]	–	–
> 5.96	< 0.03	–	≤ 0.03	Cc1c(Cl)cc(NC(=O)OCc2ccc3c(c2)C(=O)N(C2CCC(=O)NC2=O)C3)cc1OC1CCN(C)C1 (centres unmarked) [Compound 68]	–	–
–	< 0.03	> 6.30	≤ 0.03	CC1CCN(c2ccc(NC(=O)OCc3ccc4c(c3)C(=O)N(C3CCC(=O)NC3=O)C4)cn2)C1 (centres unmarked) [Compound 69]	–	–
–	0.03 to 0.3	> 6.30	–	Cc1c(Cl)cc(NC(=O)OCc2ccc3c(c2)C(=O)N(C2CCC(=O)NC2=O)C3)cc1OCC1CCN(C)C1 (centres unmarked) [Compound 70]	–	–
> 5.96	0.03 to 0.3	–	–	O=C1CCC(N2Cc3ccc(COC(=O)Nc4cnc(N5CCCCC5)c(F)c4)cc3C2=O)C(=O)N1 (centres unmarked) [Compound 72]	–	–
–	0.03 to 0.3	> 6.30	–	O=C1CCC(N2Cc3ccc(COC(=O)Nc4ccc(N5CCCC(F)(F)C5)nc4)cc3C2=O)C(=O)N1 (centres unmarked) [Compound 73]	–	–
–	< 0.03	> 6.30	≤ 0.03	CC1CCCN1c1ccc(NC(=O)OCc2ccc3c(c2)C(=O)N(C2CCC(=O)NC2=O)C3)cn1 (centres unmarked) [Compound 74]	–	–
> 5.96	0.03 to 0.3	–	–	O=C1CCC(N2Cc3ccc(COC(=O)Nc4ccc(N5CCOCC5)nc4)cc3C2=O)C(=O)N1 (centres unmarked) [Compound 76]	–	–
> 5.96	< 0.03	–	≤ 0.03	CC1CCCCN1c1ccc(NC(=O)OCc2ccc3c(c2)C(=O)N(C2CCC(=O)NC2=O)C3)cn1 (centres unmarked) [Compound 77]	–	–
–	0.03 to 0.3	> 6.30	–	O=C1CCC(N2Cc3ccc(COC(=O)Nc4ccc(C5CC5)nc4)cc3C2=O)C(=O)N1 (centres unmarked) [Compound 80]	–	–
–	0.03 to 0.3	> 6.30	–	O=C1CCC(N2Cc3ccc(COC(=O)Nc4ccc(C5COC5)cc4)cc3C2=O)C(=O)N1 (centres unmarked) [Compound 81]	–	–
> 5.96	< 0.03	–	≤ 0.03	CC1(C)COc2cc(NC(=O)OCc3ccc4c(c3)C(=O)N(C3CCC(=O)NC3=O)C4)ccc21 (centres unmarked) [Compound 83]	–	–
–	< 0.03	< 5.77	≤ 0.03	O=C1CCC(N2Cc3ccc(COC(=O)Nc4cnc(-c5ccccc5)c(F)c4)cc3C2=O)C(=O)N1 (centres unmarked) [Compound 85]	–	–
> 5.96	0.03 to 0.3	–	–	O=C1CCC(N2Cc3ccc(COC(=O)Nc4cccc(OC5CC5)c4)cc3C2=O)C(=O)N1 (centres unmarked) [Compound 93]	–	–
> 5.96	> 0.3	–	–	COc1ccccc1CNC(=O)OCc1ccc2c(c1)C(=O)N(C1CCC(=O)NC1=O)C2 (centres unmarked) [Compound 97]	–	–
–	0.03 to 0.3	< 5.77	–	O=C1CCC(N2Cc3ccc(COC(=O)Nc4ccc(C5CC5(F)F)cc4)cc3C2=O)C(=O)N1 (centres unmarked) [Compound 101]	–	–
> 5.96	> 0.3	–	–	CC(NC(=O)OCc1ccc2c(c1)C(=O)N(C1CCC(=O)NC1=O)C2)c1ccccc1 (centres unmarked) [Compound 102]	–	–
> 5.96	0.03 to 0.3	–	–	CC1COc2cc(NC(=O)OCc3ccc4c(c3)C(=O)N(C3CCC(=O)NC3=O)C4)ccc21 (centres unmarked) [Compound 103]	–	–
–	0.03 to 0.3	< 5.77	–	O=C1CCC(N2Cc3ccc(COC(=O)Nc4ccc(C5CCC5)cc4)cc3C2=O)C(=O)N1 (centres unmarked) [Compound 104]	–	–
